In US10118916B2, “Modulators of cystic fibrosis transmembrane conductance regulator protein” (AbbVie S.à.r.l., priority 2016, dated 2018):

Target: T1, F508delCFTR (Homo sapiens, UniProt P13569, DEL508-508)
T1 construct: expressed in transfected cells; host or cells: CFBE41o- (human lung derived epithelial cell line), doxycycline-inducible
Experiment: Cell Surface Expression-Horse Radish Peroxidase (CSE-HRP) assay
Assay type: cell-based
Details: CFBE41o-F508delCFTR-HRP cells; for EC50: F508delCFTR cell surface expression, luminescence, 18-24 hours at 33° C., highest concentration 20 μM; for Maximum % activity: maximum at any tested concentration, normalized to on-plate positive control (3 μM)
In short: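 CFBE41o- cells expressing doxycycline-induced (0.5 μg/mL, 72 h at 37 °C) F508delCFTR with HRP in the fourth extracellular loop; compounds 8 points, 3-fold from 20 μM, 18-24 h at 33 °C. Surface HRP measured by luminol luminescence, normalised to DMSO and 3 μM reference corrector; EC50 from variable-slope sigmoidal fit of triplicate plates.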

T1 sequence (P13569 with tags, fused parts or gaps DEL508-508): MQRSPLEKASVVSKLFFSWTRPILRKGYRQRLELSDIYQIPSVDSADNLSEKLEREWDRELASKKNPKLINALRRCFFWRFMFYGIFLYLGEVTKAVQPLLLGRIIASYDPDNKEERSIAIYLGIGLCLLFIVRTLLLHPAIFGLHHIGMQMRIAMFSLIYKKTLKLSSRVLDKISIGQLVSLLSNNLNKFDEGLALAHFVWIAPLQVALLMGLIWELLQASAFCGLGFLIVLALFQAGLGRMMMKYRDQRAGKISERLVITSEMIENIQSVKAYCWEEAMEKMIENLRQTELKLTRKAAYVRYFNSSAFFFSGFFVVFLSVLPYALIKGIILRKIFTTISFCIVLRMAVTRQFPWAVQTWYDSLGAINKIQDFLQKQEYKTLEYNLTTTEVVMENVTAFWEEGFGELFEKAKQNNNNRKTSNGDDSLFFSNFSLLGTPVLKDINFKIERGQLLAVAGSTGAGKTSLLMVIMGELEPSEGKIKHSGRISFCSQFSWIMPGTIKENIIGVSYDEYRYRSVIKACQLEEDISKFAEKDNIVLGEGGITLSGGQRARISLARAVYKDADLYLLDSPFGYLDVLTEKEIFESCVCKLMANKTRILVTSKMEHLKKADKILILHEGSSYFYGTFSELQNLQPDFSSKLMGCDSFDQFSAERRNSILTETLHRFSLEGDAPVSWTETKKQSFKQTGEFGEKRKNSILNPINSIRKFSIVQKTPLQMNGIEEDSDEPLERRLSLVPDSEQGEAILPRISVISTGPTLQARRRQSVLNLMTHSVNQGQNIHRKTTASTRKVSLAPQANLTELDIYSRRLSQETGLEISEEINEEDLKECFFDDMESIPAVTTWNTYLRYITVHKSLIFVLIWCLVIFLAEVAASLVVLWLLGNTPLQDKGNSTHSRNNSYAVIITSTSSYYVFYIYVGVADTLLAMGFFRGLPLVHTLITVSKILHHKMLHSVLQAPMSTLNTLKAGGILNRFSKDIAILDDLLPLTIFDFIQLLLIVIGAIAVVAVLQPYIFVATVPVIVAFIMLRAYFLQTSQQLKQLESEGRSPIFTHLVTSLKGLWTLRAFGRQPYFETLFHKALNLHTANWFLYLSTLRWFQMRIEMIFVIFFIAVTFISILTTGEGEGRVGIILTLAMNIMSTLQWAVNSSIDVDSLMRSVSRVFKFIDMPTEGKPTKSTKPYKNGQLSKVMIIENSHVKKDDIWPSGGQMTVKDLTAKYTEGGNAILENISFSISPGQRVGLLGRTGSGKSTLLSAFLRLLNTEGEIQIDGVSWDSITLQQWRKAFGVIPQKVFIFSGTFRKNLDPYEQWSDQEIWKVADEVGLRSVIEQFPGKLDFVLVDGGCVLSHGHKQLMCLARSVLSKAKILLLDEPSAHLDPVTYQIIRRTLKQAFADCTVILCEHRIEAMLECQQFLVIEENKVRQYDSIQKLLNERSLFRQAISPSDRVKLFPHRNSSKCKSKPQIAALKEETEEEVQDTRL

EC50 | Maximum % activity | SMILES
> 20000 nM | 5.1% | COC(=O)c1cccc([C@H]2C[C@@H](NC(=O)[C@]3(C)CCc4cc(Cl)ccc4O3)c3ccccc3O2)c1 [Example 63, methyl 3-[(2R,4R)-4-{[(2S)-6-chloro-2-methyl-3,4-dihydro-2H-1-benzopyran-2-carbonyl]amino}-3,4-dihydro-2H-1-benzopyran-2-yl]benzoate]
> 20000 nM | 18.0% | C[C@@]1(C(=O)N[C@@H]2C[C@H](c3cccc(C(=O)O)c3)Oc3ccccc32)CCc2cc(Cl)ccc2O1 [Example 64, 3-[(2R,4R)-4-{[(2S)-6-chloro-2-methyl-3,4-dihydro-2H-1-benzopyran-2-carbonyl]amino}-3,4-dihydro-2H-1-benzopyran-2-yl]benzoic acid]
> 20000 nM | 4.8% | C[C@]1(C(=O)N[C@@H]2C[C@H](c3cccc(C(=O)O)c3)Oc3ccccc32)CCc2cc(Cl)ccc2O1 [Example 66, 3-[(2R,4R)-4-{[(2R)-6-chloro-2-methyl-3,4-dihydro-2H-1-benzopyran-2-carbonyl]amino}-3,4-dihydro-2H-1-benzopyran-2-yl]benzoic acid]
> 20000 nM | 4.7% | COc1ccc2c(c1)O[C@@H](c1ccc(C(=O)O)cc1)C[C@H]2NC(=O)[C@@]1(C)CCc2cc(Cl)ccc2O1 [Example 67, 4-[(2R,4R)-4-{[(2R)-6-chloro-2-methyl-3,4-dihydro-2H-1-benzopyran-2-carbonyl]amino}-7-methoxy-3,4-dihydro-2H-1-benzopyran-2-yl]benzoic acid]
1310 nM | 85.0% | COc1ccc2c(c1)O[C@@H](c1ccc(C(=O)O)cc1)C[C@H]2NC(=O)C1(C)CCc2cc(OC(F)(F)F)ccc21 (stereo partly drawn) [Example 68, 4-[(2R,4R)-7-methoxy-4-{[1-methyl-5-(trifluoromethoxy)-2,3-dihydro-1H-indene-1-carbonyl]amino}-3,4-dihydro-2H-1-benzopyran-2-yl]benzoic acid]
100 nM | 66.1% | COc1ccc2c(c1)CC[C@]2(C)C(=O)N[C@@H]1C[C@H](c2ccc(C(=O)O)cc2)Oc2cc(OC)ccc21 [Example 69, 4-[(2R,4R)-7-methoxy-4-{[(1S)-5-methoxy-1-methyl-2,3-dihydro-1H-indene-1-carbonyl]amino}-3,4-dihydro-2H-1-benzopyran-2-yl]benzoic acid]
2210 nM | 28.0% | COc1ccc2c(c1)O[C@@H](c1ccc(C(=O)O)cc1)C[C@H]2NC(=O)C1(c2ccc(OC(F)(F)F)cc2)CCC1 [Example 70, 4-[(2R,4R)-7-methoxy-4-({1-[4-(trifluoromethoxy)phenyl]cyclobutane-1-carbonyl}amino)-3,4-dihydro-2H-1-benzopyran-2-yl]benzoic acid]
120 nM | 52.0% | COc1ccc2c(c1)O[C@@H](c1ccc(C(=O)O)cc1)C[C@H]2NC(=O)C(C)(C)c1ccc2c(c1)CCO2 [Example 71, 4-{(2R,4R)-4-[2-(2,3-dihydro-1-benzofuran-5-yl)-2-methylpropanamido]-7-methoxy-3,4-dihydro-2H-1-benzopyran-2-yl}benzoic acid]
> 20000 nM | 1.4% | COc1ccc2c(c1)O[C@@H](c1ccc(C(=O)O)cc1)C[C@H]2NC(=O)C1(c2ccccc2)CC(F)(F)C1 [Example 72, 4-{(2R,4R)-4-[(3,3-difluoro-1-phenylcyclobutane-1-carbonyl)amino]-7-methoxy-3,4-dihydro-2H-1-benzopyran-2-yl}benzoic acid]
1840 nM | 29.0% | COc1ccc2c(c1)O[C@@H](c1ccc(C(=O)O)cc1)C[C@H]2NC(=O)C(C)(C)Oc1cccc(Cl)c1 [Example 73, 4-{(2R,4R)-4-[2-(3-chlorophenoxy)-2-methylpropanamido]-7-methoxy-3,4-dihydro-2H-1-benzopyran-2-yl}benzoic acid]
70 nM | 49.8% | COc1ccc(C2(C(=O)N[C@@H]3C[C@H](c4ccc(C(=O)O)cc4)Oc4cc(OC)ccc43)CC2)cc1 [Example 74, 4-[(2R,4R)-7-methoxy-4-{[1-(4-methoxyphenyl)cyclopropane-1-carbonyl]amino}-3,4-dihydro-2H-1-benzopyran-2-yl]benzoic acid]
950 nM | 37.9% | COc1ccc2c(c1)O[C@@H](c1ccc(C(=O)O)cc1)C[C@H]2NC(=O)C1(c2ccccc2)CC1 [Example 75, 4-{(2R,4R)-7-methoxy-4-[(1-phenylcyclopropane-1-carbonyl)amino]-3,4-dihydro-2H-1-benzopyran-2-yl}benzoic acid]
2100 nM | 52.0% | COc1ccc2c(c1)O[C@@H](c1ccc(C(=O)O)cc1)C[C@H]2NC(=O)C1(c2ccc(Cl)cc2)CCC1 [Example 76, 4-[(2R,4R)-4-{[1-(4-chlorophenyl)cyclobutane-1-carbonyl]amino}-7-methoxy-3,4-dihydro-2H-1-benzopyran-2-yl]benzoic acid]
> 20000 nM | 8.0% | COc1ccc2c(c1)O[C@@H](c1ccc(C(=O)O)cc1)C[C@H]2NC(=O)C(C)(C)Oc1ccc(Cl)c(C)c1 [Example 77, 4-{(2R,4R)-4-[2-(4-chloro-3-methylphenoxy)-2-methylpropanamido]-7-methoxy-3,4-dihydro-2H-1-benzopyran-2-yl}benzoic acid]
2470 nM | 32.0% | COc1ccc2c(c1)O[C@@H](c1ccc(C(=O)O)cc1)C[C@H]2NC(=O)C(C)(C)Oc1cccc(C(F)(F)F)c1 [Example 78, 4-[(2R,4R)-7-methoxy-4-{2-methyl-2-[3-(trifluoromethyl)phenoxy]propanamido}-3,4-dihydro-2H-1-benzopyran-2-yl]benzoic acid]
> 20000 nM | −0.2% | COc1ccc2c(c1)O[C@@H](c1ccc(C(=O)O)cc1)C[C@H]2NC(=O)C1(c2ccccc2)CCC(F)(F)C1 (stereo partly drawn) [Example 80, 4-{(2R,4R)-4-[(3,3-difluoro-1-phenylcyclopentane-1-carbonyl)amino]-7-methoxy-3,4-dihydro-2H-1-benzopyran-2-yl}benzoic acid]
1880 nM | 32.0% | COc1ccc2c(c1)O[C@@H](c1ccc(C(=O)O)cc1)C[C@H]2NC(=O)C1(c2ccc(F)c(F)c2)CCC1 [Example 81, 4-[(2R,4R)-4-{[1-(3,4-difluorophenyl)cyclobutane-1-carbonyl]amino}-7-methoxy-3,4-dihydro-2H-1-benzopyran-2-yl]benzoic acid]
1880 nM | 23.3% | COc1ccc2c(c1)O[C@@H](c1ccc(C(=O)O)cc1)C[C@H]2NC(=O)C1(c2ccccc2C(F)(F)F)CCC1 [Example 82, 4-[(2R,4R)-7-methoxy-4-({1-[2-(trifluoromethyl)phenyl]cyclobutane-1-carbonyl}amino)-3,4-dihydro-2H-1-benzopyran-2-yl]benzoic acid]
3170 nM | 51.0% | COc1ccc2c(c1)O[C@@H](c1ccc(C(=O)O)cc1)C[C@H]2NC(=O)C1(c2cccc(OC(F)(F)F)c2)CCC1 [Example 83, 4-[(2R,4R)-7-methoxy-4-({1-[3-(trifluoromethoxy)phenyl]cyclobutane-1-carbonyl}amino)-3,4-dihydro-2H-1-benzopyran-2-yl]benzoic acid]
560 nM | 56.2% | COc1ccc2c(c1)O[C@@H](c1ccc(C(=O)O)cc1)C[C@H]2NC(=O)C1(c2ccc(F)cc2)CC1 [Example 84, 4-[(2R,4R)-4-{[1-(4-fluorophenyl)cyclopropane-1-carbonyl]amino}-7-methoxy-3,4-dihydro-2H-1-benzopyran-2-yl]benzoic acid]
720 nM | 50.4% | COc1ccc2c(c1)O[C@@H](c1ccc(C(=O)O)cc1)C[C@H]2NC(=O)C1(c2cccc(F)c2)CC1 [Example 85, 4-[(2R,4R)-4-{[1-(3-fluorophenyl)cyclopropane-1-carbonyl]amino}-7-methoxy-3,4-dihydro-2H-1-benzopyran-2-yl]benzoic acid]
570 nM | 57.9% | COc1ccc2c(c1)O[C@@H](c1ccc(C(=O)O)cc1)C[C@H]2NC(=O)C1(c2ccc(C)c(OC)c2)CC1 [Example 86, 4-[(2R,4R)-7-methoxy-4-{[1-(3-methoxy-4-methylphenyl)cyclopropane-1-carbonyl]amino}-3,4-dihydro-2H-1-benzopyran-2-yl]benzoic acid]
1830 nM | 46.0% | COc1ccc2c(c1)O[C@@H](c1ccc(C(=O)O)cc1)C[C@H]2NC(=O)C1(c2cccc(C#N)c2)CC1 [Example 87, 4-[(2R,4R)-4-{[1-(3-cyanophenyl)cyclopropane-1-carbonyl]amino}-7-methoxy-3,4-dihydro-2H-1-benzopyran-2-yl]benzoic acid]
640 nM | 44.0% | COc1ccc2c(c1)O[C@@H](c1ccc(C(=O)O)cc1)C[C@H]2NC(=O)C1(c2cccc(Br)c2)CC1 [Example 88, 4-[(2R,4R)-4-{[1-(3-bromophenyl)cyclopropane-1-carbonyl]amino}-7-methoxy-3,4-dihydro-2H-1-benzopyran-2-yl]benzoic acid]
750 nM | 42.0% | COc1ccc2c(c1)O[C@@H](c1ccc(C(=O)O)cc1)C[C@H]2NC(=O)C1(c2ccccc2Br)CC1 [Example 89, 4-[(2R,4R)-4-{[1-(2-bromophenyl)cyclopropane-1-carbonyl]amino}-7-methoxy-3,4-dihydro-2H-1-benzopyran-2-yl]benzoic acid]
